Data published in US11459296B2, “Antibacterial compounds” (INFEX Therapeutics Limited, priority 2018, dated 2022).
Structures can show the parent of a compound that is named as a salt.

Assays:
[1] = molecular target: NDM-1 (Klebsiella pneumoniae, UniProt C7C422); assay: metallo-β-lactamase inhibition assay (nitrocefin); assay type: biochemical; settings: 1.5 nM NDM-1, 100 μM nitrocefin, 37° C., pH 7.5
Description: Compounds of the invention were tested in a metallo-β-lactamase inhibition assay to investigate mechanism of action of the compounds. Results are reported as the concentration of test article required to inhibit enzyme activity by 50% (IC50).
Inhibition of metallo-β-lactamase enzyme function was performed at 37° C. in buffer at pH 7.5 (50 mM HEPES, 150 mM NaCl, 0.1 mM ZnSO4, 20 μg/mL PEG4000), containing 1.5 nM NDM-1, 100 μM nitrocefin, and a range of concentrations of compound. Absorbance at 490 nm was measured using a BMG LABTECH FLUOstar Omega microplate reader every minute for 30 minutes. IC50S were determined from the average increase in OD per minute versus the Log 10 concentration of compound using GraphPad Prism.

[2] = Cytotoxicity Assay (CellTiter-Glo); assay type: cell-based; settings: human, Hep G2 cells (ATCC HB-8065); 24 h exposure, cell viability; read-out: HepG2 CC50
Description: Cytotoxicity was evaluated in human Hep G2 cells (ATCC HB-8065) seeded at a density of 2×10^5 cells per well and incubated for 24 h at 37° C., 5% CO2. Cells were exposed to a doubling dilution series of test article. After 24 h exposure, the viability of the cells was determined using CellTiter-Glo® (Promega, Wis., USA) according to the manufacturer's instructions. Results are reported as the concentration of test article required to reduce cell viability by 50% (CC50).

[3] = system: A. baumannii SG698 NDM-1; assay: Imipenem combination MIC, broth microdilution; assay type: cell-based; settings: imipenem only (baseline)
Description: (§1) MICs were determined by exposing bacteria to serial dilutions of antibacterial agents in MHB-II (cation-adjusted Mueller-Hinton Broth pH 7.4) according to Clinical and Laboratory Standards Institute (CLSI) broth microdilution guidelines (Cockerill et al., 2012).
(§2) Combination MIC were performed as described for MIC determinations with the addition of 4 mg/L test article to MHB-II.
(§3) Compounds of the invention were also tested in combination with imipenem.

[4] = system: E. coli ATCCBAA-2452 NDM-1; assay: Imipenem combination MIC, broth microdilution; assay type: cell-based; settings: imipenem only (baseline)
Description: as §1, §2, §3

[5] = system: E. coli NCTC13476 IMP; assay: Imipenem combination MIC, broth microdilution; assay type: cell-based; settings: imipenem only (baseline)
Description: as §1, §2, §3

[6] = system: K. pneumoniae ATCC BAA2146 NDM-1; assay: Imipenem combination MIC, broth microdilution; assay type: cell-based; settings: imipenem only (baseline)
Description: as §1, §2, §3

[7] = system: K. pneumoniae NCTC13440 VIM-1; assay: Imipenem combination MIC, broth microdilution; assay type: cell-based; settings: imipenem only (baseline)
Description: as §1, §2, §3

[8] = system: A. baumannii SG698 NDM-1; assay: Meropenem combination MIC, broth microdilution; assay type: cell-based; settings: meropenem only (baseline)
Description: as §1, §2

[9] = system: E. coli ATCCBAA-2452 NDM-1; assay: Meropenem combination MIC, broth microdilution; assay type: cell-based; settings: meropenem only (baseline)
Description: as §1, §2

[10] = system: E. coli NCTC13476 IMP; assay: Meropenem combination MIC, broth microdilution; assay type: cell-based; settings: meropenem only (baseline)
Description: as §1, §2

[11] = system: K. pneumoniae ATCC BAA2146 NDM-1; assay: Meropenem combination MIC, broth microdilution; assay type: cell-based; settings: meropenem only (baseline)
Description: as §1, §2

[12] = system: K. pneumoniae NCTC13439 VIM-1; assay: Meropenem combination MIC, broth microdilution; assay type: cell-based; settings: meropenem only (baseline)
Description: as §1, §2

[13] = system: K. pneumoniae NCTC13440 VIM-1; assay: Meropenem combination MIC, broth microdilution; assay type: cell-based; settings: meropenem only (baseline)
Description: as §1, §2

Sequence of NDM-1 (C7C422 whole entry, looked up, species assumed): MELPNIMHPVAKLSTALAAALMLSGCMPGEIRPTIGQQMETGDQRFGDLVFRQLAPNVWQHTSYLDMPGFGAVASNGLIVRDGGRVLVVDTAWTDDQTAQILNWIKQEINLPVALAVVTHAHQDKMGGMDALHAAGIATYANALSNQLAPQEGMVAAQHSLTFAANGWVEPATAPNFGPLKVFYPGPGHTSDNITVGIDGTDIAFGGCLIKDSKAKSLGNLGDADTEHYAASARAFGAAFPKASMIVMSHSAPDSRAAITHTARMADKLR

SMILES	IC50 [1] [µM]	CC50 at 24 h [2] [µg/mL]	further results
NS(=O)(=O)n1ccc(OCC2CC2)c1C(=O)O [Example 72, 3-(Cyclopropylmethoxy)-1-sulfamoyl-pyrrole-2-carboxylic acid, Sodium Salt]	3.89	> 256	
C[C@@H](O)[C@H]1C(=O)N2C(C(=O)O)=C(SCCN=CN)C[C@H]12 [Imipenem, imipenem]			Imipenem MIC IV A. baumannii SG698 NDM-1 [3]: F (F≤80); Imipenem MIC I E. coli ATCCBAA-2452 NDM-1 [4]: D (D≤10); Imipenem MIC II E. coli NCTC13476 IMP [5]: C (C≤5); Imipenem MIC III K. pneumoniae ATCC BAA2146 NDM-1 [6]: E (E≤40); Imipenem MIC V K. pneumoniae NCTC13440 VIM-1 [7]: D (D≤10)
C[C@@H](O)[C@H]1C(=O)N2C(C(=O)O)=C(S[C@@H]3CN[C@H](C(=O)N(C)C)C3)[C@H](C)[C@H]12 [Meropenem, meropenem]			Meropenem MIC (μg/mL) IV A. baumannii SG698 NDM-1 [8]: 8 µg/mL; Meropenem MIC (μg/mL) I E. coli ATCCBAA-2452 NDM-1 [9]: 1 µg/mL; Meropenem MIC (μg/mL) II E. coli NCTC13476 IMP [10]: 4 µg/mL; Meropenem MIC (μg/mL) III K. pneumoniae ATCC BAA2146 NDM-1 [11]: 16 µg/mL; Meropenem MIC (μg/mL) VII K. pneumoniae NCTC13439 VIM-1 [12]: 0.5 µg/mL; Meropenem MIC (μg/mL) V K. pneumoniae NCTC13440 VIM-1 [13]: 1 µg/mL

More lines, in order of falling IC50 [1], values ahead:

IC50 [1] [µM]	SMILES	CC50 at 24 h [2] [µg/mL]	further results
2.57	NS(=O)(=O)n1ccc(-n2cccc2)c1C(=O)O [Example 73, 3-Pyrrol-1-yl-1-sulfamoyl-pyrrole-2-carboxylic acid, Sodium Salt]	> 256	
1.31	CC(=O)N1CCC(c2ccn(S(N)(=O)=O)c2C(=O)O)CC1 [Example 58, 3-(1-Acetylpiperidin-4-yl)-1-sulfamoyl-1H-pyrrole-2-carboxylic acid]	> 256	
1.3	NCC(=O)N1CCC(c2ccn(S(N)(=O)=O)c2C(=O)O)CC1 [Example 62, 3-[1-(2-Aminoacetyl)-4-piperidyl]-1-sulfamoyl-pyrrole-2-carboxylic acid]	> 256	
1.18	Cn1cc(-c2ccn(S(N)(=O)=O)c2-c2nnn[nH]2)cn1 [Example 76, 3-(1-Methyl-1H-pyrazol-4-yl)-2-(1H-tetrazol-5-yl)-1H-pyrrole-1-sulfonamide]	> 256	
0.506	Nc1ccc(-c2ccn(S(N)(=O)=O)c2-c2nnn[nH]2)cn1 [Example 77, 3-(6-Aminopyridin-3-yl)-2-(1H-tetrazol-5-yl)-1H-pyrrole-1-sulfonamide]	> 256	
